Legend:
Assay in all cases: relative viability (nuclei count vs DMSO), 5 days (fraction); higher = more cells survive
Dactolisib + Lapatinib = compound: Cn1c(=O)n(-c2ccc(C(C)(C)C#N)cc2)c2c3cc(-c4cnc5ccccc5c4)ccc3ncc21 [Dactolisib] + CS(=O)(=O)CCNCc1ccc(-c2ccc3ncnc(Nc4ccc(OCc5cccc(F)c5)c(Cl)c4)c3c2)o1 [Lapatinib] (partner 2 µM)
Procedure, shortened: (§1)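 After 5 days of treatment, lung cancer cells in 1536-well plates were fixed and stained in a single step (final 0.05% Triton X-100, 1% formaldehyde, 1 ug/ml Hoechst) and their nuclei counted on 4× images. Treatment had been applied by pin tool the day after seeding as one drug alone or as a fixed anchor-drug dose with five library-drug doses (not always all listed) in √10 steps. Relative viability is the nuclei count of treated wells divided by that of vehicle wells, and values are medians of duplicate plates.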

AZ505 + Pictilisib = compound: C1CCC(CC1)N(CCNCCC2=C3C(=C(C=C2)O)NC(=O)CO3)C(=O)CCNCCC4=CC(=C(C=C4)Cl)Cl [AZ505] + CS(=O)(=O)N1CCN(Cc2cc3nc(-c4cccc5[nH]ncc45)nc(N4CCOCC4)c3s2)CC1 [Pictilisib] (partner 1 µM)
Procedure, shortened: as §1

AZ505 + Lapatinib = compound: C1CCC(CC1)N(CCNCCC2=C3C(=C(C=C2)O)NC(=O)CO3)C(=O)CCNCCC4=CC(=C(C=C4)Cl)Cl [AZ505] + CS(=O)(=O)CCNCc1ccc(-c2ccc3ncnc(Nc4ccc(OCc5cccc(F)c5)c(Cl)c4)c3c2)o1 [Lapatinib] (partner 2 µM)
Procedure, shortened: as §1

Dactolisib + Alpelisib = compound: Cn1c(=O)n(-c2ccc(C(C)(C)C#N)cc2)c2c3cc(-c4cnc5ccccc5c4)ccc3ncc21 [Dactolisib] + Cc1nc(NC(=O)N2CCC[C@H]2C(N)=O)sc1-c1ccnc(C(C)(C)C(F)(F)F)c1 [Alpelisib] (partner 2 µM)
Procedure, shortened: as §1

| Cell Line | relative viability (Dactolisib + Lapatinib; first compound 0.002 µM) | relative viability (Dactolisib + Lapatinib; first compound 0.006325 µM) | relative viability (Dactolisib + Lapatinib; first compound 0.02 µM) | relative viability (Dactolisib + Lapatinib; first compound 0.06325 µM) | relative viability (Dactolisib + Lapatinib; first compound 0.2 µM) | relative viability (AZ505 + Pictilisib; first compound 0.08 µM) | relative viability (AZ505 + Pictilisib; first compound 0.253 µM) | relative viability (AZ505 + Pictilisib; first compound 0.8 µM) | relative viability (AZ505 + Pictilisib; first compound 2.53 µM) | relative viability (AZ505 + Pictilisib; first compound 8 µM) | relative viability (AZ505 + Lapatinib; first compound 0.08 µM) | relative viability (AZ505 + Lapatinib; first compound 0.253 µM) | relative viability (AZ505 + Lapatinib; first compound 0.8 µM) | relative viability (AZ505 + Lapatinib; first compound 2.53 µM) | relative viability (AZ505 + Lapatinib; first compound 8 µM) | relative viability (Dactolisib + Alpelisib; first compound 0.002 µM) | relative viability (Dactolisib + Alpelisib; first compound 0.006325 µM) | relative viability (Dactolisib + Alpelisib; first compound 0.02 µM) | relative viability (Dactolisib + Alpelisib; first compound 0.06325 µM) | relative viability (Dactolisib + Alpelisib; first compound 0.2 µM) |
| --- | --- | --- | --- | --- | --- | --- | --- | --- | --- | --- | --- | --- | --- | --- | --- | --- | --- | --- | --- | --- |
| NCI-H2126 | 0.826 | 0.799 | 0.745 | 0.641 | 0.476 | 0.448 | 0.462 | 0.535 | 0.452 | 0.544 | 0.758 | 0.78 | 0.767 | 0.639 | 0.701 | 0.751 | 0.702 | 0.639 | 0.518 | 0.425 |
| HOP-62 | 1.28 | 1.04 | 0.891 | 0.756 | 0.667 | 0.557 | 0.678 | 0.829 | 0.407 | 0.647 | 0.878 | 1.22 | 1.08 | 1.03 | 0.942 | 1.19 | 1.09 | 0.876 | 0.468 | 0.323 |
| CAL-12T | 0.792 | 0.567 | 0.537 | 0.366 | 0.258 | 0.445 | 0.355 | 0.559 | 0.432 | 0.512 | 0.637 | 0.534 | 0.537 | 0.625 | 0.728 | 1.53 | 1.13 | 1.2 | 0.205 | 0.206 |
| NCI-H520 | 0.888 | 0.753 | 0.655 | 0.221 | 0.128 | 0.264 | 0.273 | 0.284 | 0.272 | 0.259 | 0.799 | 0.828 | 0.761 | 0.895 | 0.983 | 1.11 | 0.657 | 0.753 | 0.263 | 0.194 |
| NCI-H1755 | 1.07 | 1.03 | 1.06 | 0.852 | 0.73 | 0.347 | 0.331 | 0.333 | 0.42 | 0.431 | 1.02 | 0.99 | 1.09 | 1.09 | 1.03 | 0.944 | 0.898 | 0.872 | 0.655 | 0.372 |
| NCI-H2023 | 0.282 | 0.615 | 0.597 | 0.127 | 0.137 | 0.249 | 0.17 | 0.197 | 0.264 | 0.223 | 0.674 | 0.822 | 0.845 | 0.917 | 0.815 | 0.54 | 0.56 | 0.553 | 0.147 | 0.153 |
| NCI-H2009 | 1.1 | 1.01 | 0.95 | 0.9 | 0.327 | 0.633 | 0.703 | 0.688 | 0.486 | 0.696 | 0.864 | 0.928 | 1.07 | 0.665 | 0.86 | 1.21 | 1.19 | 1.14 | 0.676 | 0.532 |

From the supplement of paper PMC10307832
